Experimental data reported in US20260027083A1, “USE OF PPAR AGONIST FOR IMPROVEMENT OF ENERGY METABOLISM” (NOVMETAPHARMA CO., LTD., priority 2022, published 2026).

Target: T1, His-tagged recombinant human PPARγ ligand binding domain (Homo sapiens, UniProt P37231)
T1 construct: made in house; host or cells: E. coli (DE3, Rosetta)
T1 sequence (P37231 238-503 limits assumed): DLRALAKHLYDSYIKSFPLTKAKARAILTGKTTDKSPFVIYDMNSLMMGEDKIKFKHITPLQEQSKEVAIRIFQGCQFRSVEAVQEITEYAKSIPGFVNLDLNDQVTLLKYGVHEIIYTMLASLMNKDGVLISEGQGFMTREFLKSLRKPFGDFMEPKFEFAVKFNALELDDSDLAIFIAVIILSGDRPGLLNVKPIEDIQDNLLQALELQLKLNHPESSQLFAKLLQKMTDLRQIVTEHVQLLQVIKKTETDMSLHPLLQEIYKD
Assay: CNBr-bead conjugation (pull-down) assay, hPPARγ-LBD
Conditions: CNBr-coupled drug, positive control rosiglitazone, FIG. 2
Experimental: A compound of the present invention represented by Chemical Formula 1 was synthesized by DAEJUNG Chemicals & Metals (Gyeonggi-do, Korea) (indicated as ‘D6’ in the drawing). WY14643, GW501516, and rosiglitazone were purchased from Sigma-Aldrich (St. Louis, MO, USA). The compounds were dissolved in dimethyl sulfoxide (DMSO), diluted in a culture solution, and used in the experiment. Cyanogen bromide (CNBr)-activated Sepharose 4B was purchased from Sigma-Aldrich (St. Louis, MO, USA). His-tagged recombinant human PPAR-ligand binding domain (LBD) was expressed in E. coli (DE3, Rosetta) and then purified and used. A His antibody was purchased from Cell Signaling Technology (Danvers, Massachusetts, USA). 3-Isobutyl-1-methylxanthine (IBMX), dexamethasone, bovine pancreatic insulin, and Oil Red O were purchased from Sigma-Aldrich (St. Louis, MO, USA). A PRO-PREP™ Protein Extraction Solution was purchased from iNtRON Biotechnology (iNtRON Biotech., Korea). […]
100 mg of CNBr-activated Sepharose 4B was added to an e-tube, and then the beads were activated by rotating with 1 ml of 1 mM HCl for 10 minutes at room temperature. […] Each e-tube was added with the drug and rotated overnight at 4° C., at which time the concentration was measured to be 20 μM. […] The supernatant was completely removed, and the pellet was detected by Western blotting. […]

COc1ccc(-c2cc(=O)oc3c(C)c(OC(=O)[C@H](Cc4c[nH]c5ccccc45)NC(=O)OC(C)(C)C)ccc23)cc1 [Chemical Formula 1, [4-(4-methoxyphenyl)-8-methyl-2-oxochromen-7-yl] (2S)-3-(1H-indol-3-yl)-2-[(2-methylpropan-2-yl)oxycarbonylamino]propanoate]
conjugation (binding) to hPPARγ-LBD, Western blotting: as much potently as a PPAR agonist used as a positive control
